The numbers were not newly measured in PMC6399674 (The Journal of Organic Chemistry, 2019), which cites them from elsewhere.

The target of the series is T1, lectin LecA (Pseudomonas aeruginosa, UniProt Q05097).
T1 sequence (Q05097 1-122): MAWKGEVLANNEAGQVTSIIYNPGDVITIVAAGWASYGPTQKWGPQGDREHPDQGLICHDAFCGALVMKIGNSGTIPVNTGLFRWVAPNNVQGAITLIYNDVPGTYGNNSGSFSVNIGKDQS
As to conditions: ITC.

Structures are written as SMILES. Like-named read-outs stand apart in the source and are kept apart here.

For the compound `O=C[C@H](O)[C@@H](O)[C@@H](O)[C@H](O)CO` [D-dalactose, galactose], the “n (stoichiometry)” value was 1.1, the ΔG entry is listed as “–5.5 kcal/mol”, the ΔH entry was “–7.9 kcal/mol” and the “–TΔS” value is listed as 2.3 kcal/mol. Where the note is “as stated in text”, the Kd was 70 to 90 µM.
`OC[C@H]1O[C@@H](Oc2ccccc2)[C@H](O)[C@@H](O)[C@H]1O` [Gal-β-OPh]: the Kd is 8.8 µM, the “n (stoichiometry)” value was 0.9, the ΔG result is “–6.9 kcal/mol” and the ΔH entry is “–11.2 kcal/mol”. The “–TΔS” value is 4.8 kcal/mol. Under “as stated in text”, the Kd is ~9 µM.
